PubChem BioAssay (NCI)
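These data come from cells grown in 96-well plates and exposed to compound for 48 hours at five concentrations. The concentration for full growth arrest is given as TGI.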

What was measured:
Test in all cases: growth of human tumour cells (NCI), 48 h
[1] = tested on: T-47D breast
[2] = tested on: SK-MEL-5 melanoma
[3] = tested on: M14 melanoma
[4] = tested on: NCI/ADR-RES ovarian
[5] = tested on: OVCAR-4 ovarian
[6] = tested on: HT29 colon
[7] = tested on: SF-539 CNS
[8] = tested on: HCT-15 colon
[9] = tested on: SN12C renal
[10] = tested on: OVCAR-8 ovarian
[11] = tested on: DU-145 prostate
[12] = tested on: A498 renal
[13] = tested on: MCF7 breast
[14] = tested on: ACHN renal
[15] = tested on: K-562 leukemia
[16] = tested on: SK-MEL-28 melanoma
[17] = tested on: CCRF-CEM leukemia
[18] = tested on: LOX IMVI melanoma
[19] = tested on: HL-60(TB) leukemia
[20] = tested on: EKVX NSCLC
[21] = tested on: A549 NSCLC
[22] = tested on: SNB-75 CNS
[23] = tested on: CAKI-1 renal
[24] = tested on: HCC-2998 colon
[25] = tested on: PC-3 prostate
[26] = tested on: SK-MEL-2 melanoma
[27] = tested on: SF-295 CNS
[28] = tested on: SK-OV-3 ovarian
[29] = tested on: 786-0 renal
[30] = tested on: U251 CNS
[31] = tested on: OVCAR-5 ovarian
[32] = tested on: SF-268 CNS
[33] = tested on: NCI-H226 lung
[34] = tested on: NCI-H23 lung
[35] = tested on: SR leukemia
[36] = tested on: UACC-62 melanoma
[37] = tested on: COLO 205 colon
[38] = tested on: MOLT-4 leukemia
[39] = tested on: SNB-19 CNS
[40] = tested on: HS 578T breast
[41] = tested on: HOP-62 NSCLC
[42] = tested on: MDA-MB-231 breast
[43] = tested on: UACC-257 melanoma
[44] = tested on: HOP-92 NSCLC
[45] = tested on: HCT-116 colon
[46] = tested on: KM12 colon
[47] = tested on: NCI-H522 lung
[48] = tested on: IGROV1 ovarian
[49] = tested on: SW-620 colon
[50] = tested on: BT-549 breast
[51] = tested on: RXF 393 renal
[52] = tested on: RPMI-8226 leukemia
[53] = tested on: OVCAR-3 ovarian
[54] = tested on: MDA-MB-435
[55] = tested on: TK-10 renal
[56] = tested on: MALME-3M melanoma
[57] = tested on: UO-31 renal
[58] = tested on: MDA-N
[59] = tested on: NCI-H460 lung

Measured: TGI

C[N+]1(CCC[N+]2(C)CC3C4C=CC(CC4)C3C2)CCOCC1 (centres undefined)
> 100 µM: [1] | [2] | [3] | [4] | [5] | [6] | [7] | [8] | [9] | [10] | [11] | [12] | [13] | [14] | [15] | [16] | [17] | [18] | [19] | [20] | [21] | [22] | [23] | [24] | [25] | [26] | [27] | [28] | [29] | [30] | [31] | [32] | [33] | [34] | [35] | [36] | [37] | [38] | [39] | [40] | [41] | [42] | [43] | [44] | [45] | [46] | [47] | [48] | [49] | [50] | [51] | [52] | [53] | [54] | [55] | [56] | [57] | [58]

NNC(=O)c1ccc(OCc2nc3ccccc3[nH]2)cc1
> 100 µM: [1] | [2] | [3] | [4] | [5] | [6] | [7] | [8] | [59] | [9] | [10] | [11] | [12] | [13] | [14] | [15] | [16] | [18] | [19] | [20] | [21] | [23] | [25] | [26] | [27] | [28] | [29] | [30] | [31] | [32] | [33] | [34] | [35] | [36] | [37] | [38] | [39] | [40] | [42] | [43] | [44] | [45] | [46] | [47] | [48] | [49] | [50] | [51] | [52] | [53] | [54] | [55] | [56] | [57] | [58]

Cc1c(N2C(=O)/C(=C/c3ccc(N(CCC#N)CCC#N)cc3)N=C2c2ccccc2)c(=O)n(-c2ccccc2)n1C
> 100 µM: [1] | [2] | [3] | [4] | [5] | [6] | [7] | [8] | [59] | [9] | [10] | [11] | [12] | [13] | [16] | [17] | [18] | [19] | [20] | [21] | [23] | [24] | [26] | [27] | [28] | [29] | [30] | [31] | [32] | [33] | [34] | [35] | [36] | [37] | [38] | [39] | [40] | [41] | [42] | [43] | [44] | [45] | [46] | [48] | [49] | [50] | [51] | [52] | [53] | [54] | [56] | [57] | [58]

CCOC(=O)CN1CC(C2=C(O)CN(CC(=O)OCC)C2=O)=CC1=O
> 100 µM: [1] | [2] | [3] | [4] | [5] | [6] | [7] | [8] | [59] | [9] | [10] | [11] | [12] | [13] | [14] | [15] | [16] | [17] | [18] | [19] | [20] | [21] | [22] | [23] | [24] | [25] | [26] | [27] | [28] | [29] | [30] | [31] | [32] | [33] | [34] | [35] | [36] | [37] | [38] | [39] | [40] | [41] | [42] | [43] | [44] | [45] | [46] | [47] | [48] | [49] | [50] | [52] | [53] | [54] | [55] | [56] | [57] | [58]
